The source of these data is ChEMBL document CHEMBL1156346, “Cytotoxic and novel compounds from Solanum indicum” (J Nat Prod, 2001).

pIC50: −log10 of the molar value.

The test system of this assay is OVCAR-3. The assay is described as follows: Cytotoxicity against human OVCAR-3 cells. It counts as functional, cell-based.

Usually pIC50 stands for −log10 of the IC50, conventionally taken in molar units. High values mean a small IC50, low ones a large IC50. The compound `C=C(C)[C@@H]1CC[C@@]2(C1)C(C)=CC(=O)C[C@H]2C` [SOLAVETIVONE] showed a pIC50 of 4.00.
